Where two headings read alike, the source gives them in different places.
Tests used:
memapsin 2 = memapsin 2 (Homo sapiens, UniProt P56817); test: Inhibition of memapsin 2 beta-secretase activity (fluorogenic substrate FS-2); assay type: biochemical; details: memapsin 2, pH 4, 37° C., 20 minutes pre-incubation; read-out: M2Ki
Procedure, shortened: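 Kinetic fluorogenic assay: hydrolysis of the MCA/DNP-labelled APP Swedish-variant peptide FS-2 monitored as fluorescence rise at 37° C, pH 4, after 20 min enzyme–compound preincubation. Relative rates fitted with a tight-binding inhibitor model.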

[1] = test system: Aβ production in Chinese hamster ovary cells that over-express human APP695 with the London and Swedish mutations; test: Cellular Aβ IC50 determination (Aβ40 sandwich ELISA); assay type: cell-based; details: cellular Aβ production, read-out: IC50
Procedure: The potency of compounds against memapsin 2 activity was determined in a cellular assay of Aβ production. […] Chinese hamster ovary cells that over-express human APP695 with the London and Swedish mutations were seeded in multi-well plates at 10% confluency. Compounds are dissolved in DMSO to concentrations near 1 mM, and diluted into culture media to a final concentration near 4 μM (final 0.4% DMSO). […] Aliquots were removed and assayed for Aβ40 content using a sandwich ELISA (BioSource International). Amount of Aβ40 over the range of concentration of compounds, relative to control incubations, were fit to a 4-parameter IC50 model.

Sequence of memapsin 2 (P56817 46-501): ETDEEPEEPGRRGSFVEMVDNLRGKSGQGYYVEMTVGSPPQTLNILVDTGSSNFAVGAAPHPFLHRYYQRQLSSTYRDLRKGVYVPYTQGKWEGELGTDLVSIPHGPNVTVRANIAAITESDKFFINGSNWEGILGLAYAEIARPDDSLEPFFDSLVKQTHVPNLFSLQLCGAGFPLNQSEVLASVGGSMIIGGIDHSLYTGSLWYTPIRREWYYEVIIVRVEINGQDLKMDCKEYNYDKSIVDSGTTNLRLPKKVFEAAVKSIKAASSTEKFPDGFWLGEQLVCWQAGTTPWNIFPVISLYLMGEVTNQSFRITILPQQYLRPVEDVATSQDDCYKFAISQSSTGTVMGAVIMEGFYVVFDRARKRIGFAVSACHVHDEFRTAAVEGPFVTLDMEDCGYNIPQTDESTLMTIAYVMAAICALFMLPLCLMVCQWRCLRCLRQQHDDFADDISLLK

| Structure (SMILES) | Ki (memapsin 2) [nM] | IC50 [1] [nM] | IC50 ([1]; Cricetulus griseus) [nM] |
| --- | --- | --- | --- |
| COc1cccc(CN(C)C[C@@H](O)[C@H](Cc2ccccc2)NC(=O)c2cccc(C(=O)N(C)Cc3nc(C)cs3)c2)c1 [Compound 1, N^1-((2S,3R)-3-hydroxy-4-((3-methoxybenzyl)(methyl)amino)-1-phenylbutan-2-yl)-N^3-methyl-N^3-((4-methylthiazol-2-yl)methyl)isophthalamide] | < 300 | < 1000 |  |
| COc1cccc(CNC[C@@H](O)[C@H](Cc2ccccc2)NC(=O)c2cc(C(=O)N(C)Cc3nc(C)cs3)cc(C(C)(C)C)c2)c1 [Compound 2, 5-tert-butyl-N1-((2S,3R)-3-hydroxy-4-(3-methoxybenzylamino)-1-phenylbutan-2-yl)-N3-methyl-N3-((4-methylthiazol-2-yl)methyl)isophthalamide] | < 300 |  | < 1000 |
| COc1cccc(CNC[C@@H](O)[C@H](Cc2ccccc2)NC(=O)c2cc(F)cc(C(=O)N(C)Cc3nc(C)cs3)c2)c1 [Compound 4, 5-fluoro-N1-((2S,3R)-3-hydroxy-4-(3-methoxybenzylamino)-1-phenylbutan-2-yl)-N3-methyl-N3-((4-methylthiazol-2-yl)methyl)isophthalamide] | < 300 |  | < 1000 |
| Cc1csc(CN(C)C(=O)c2cccc(C(=O)N[C@@H](Cc3ccccc3)[C@H](O)CNCc3cc(C(C)C)ccn3)c2)n1 [Compound 5, N1-((2S,3R)-3-hydroxy-4-((4-isopropylpyridin-2-yl)methylamino)-1-phenylbutan-2-yl)-N3-methyl-N3-((4-methylthiazol-2-yl)methyl)isophthalamide] | < 300 |  | < 1000 |
| COc1cccc(CNC[C@@H](O)[C@H](Cc2ccccc2)NC(=O)c2cccc(C(=O)N(C)Cc3ncc(C)s3)c2)c1 [Compound 6, N1-((2S,3R)-3-hydroxy-4-(3-methoxybenzylamino)-1-phenylbutan-2-yl)-N3-methyl-N3-((5-methylthiazol-2-yl)methyl)isophthalamide] | > 501 |  | > 5000 |
| COc1cccc(CNC[C@@H](O)[C@H](Cc2ccccc2)NC(=O)c2cc(C)cc(C(=O)N(Cc3nc(C)cs3)C3CC3)c2)c1 [Compound 9, N1-cyclopropyl-N3-((2S,3R)-3-hydroxy-4-(3-methoxybenzylamino)-1-phenylbutan-2-yl)-5-methyl-N1-((4-methylthiazol-2-yl)methyl)isophthalamide] | < 300 |  | < 1000 |
| Cc1csc(CN(C)C(=O)c2cccc(C(=O)N[C@@H](Cc3ccccc3)[C@H](O)CNCc3cccc(C(C)C)n3)c2)n1 [Compound 10, N1-((2S,3R)-3-hydroxy-4-((6-isopropylpyridin-2-yl)methylamino)-1-phenylbutan-2-yl)-N3-methyl-N3-((4-methylthiazol-2-yl)methyl)isophthalamide] | < 300 |  | < 1000 |
| CCCN(Cc1nc(C)cs1)C(=O)c1cccc(C(=O)N[C@@H](Cc2ccccc2)[C@H](O)CNCc2cccc(OC)c2)c1 [Compound 11, N1-((2S,3R)-3-hydroxy-4-(3-methoxybenzylamino)-1-phenylbutan-2-yl)-N3-((4-methylthiazol-2-yl)methyl)-N3-propylisophthalamide] | < 300 |  | < 1000 |
| Cc1csc(CN(C)C(=O)c2cccc(C(=O)N[C@@H](Cc3ccccc3)[C@H](O)CNCc3cccc(C4CC4)c3)c2)n1 [Compound 12, N1-((2S,3R)-4-(3-cyclopropylbenzylamino)-3-hydroxy-1-phenylbutan-2-yl)-N3-methyl-N3-((4-methylthiazol-2-yl)methyl)isophthalamide] | < 300 |  | < 1000 |
| CCN(Cc1nc(C)cs1)C(=O)c1cc(OC)cc(C(=O)N[C@@H](Cc2ccccc2)[C@H](O)CNCc2cccc(OC)c2)c1 [Compound 16, N1-ethyl-N3-((2S,3R)-3-hydroxy-4-(3-methoxybenzylamino)-1-phenylbutan-2-yl)-5-methoxy-N1-((4-methylthiazol-2-yl)methyl)isophthalamide] | < 300 |  | < 1000 |
| COc1cccc(CNC[C@@H](O)[C@H](Cc2ccccc2)NC(=O)c2cccc(C(=O)N(C)Cc3ccc(C)o3)c2)c1 [Compound 18, N1-((2S,3R)-3-hydroxy-4-(3-methoxybenzylamino)-1-phenylbutan-2-yl)-N3-methyl-N3-((5-methylfuran-2-yl)methyl)isophthalamide] | 301 to 500 |  | < 1000 |
| COc1cccc(CNC[C@@H](O)[C@H](Cc2ccccc2)NC(=O)c2cc(C(=O)O)cc(C(=O)N(C)Cc3nc(C)cs3)c2)c1 [Compound 19, 3-((2S,3R)-3-hydroxy-4-(3-methoxybenzylamino)-1-phenylbutan-2-ylcarbamoyl)-5-(methyl((4-methylthiazol-2-yl)methyl)carbamoyl)benzoic acid] | < 300 |  | < 1000 |
| C=C(C)c1cncc(CNC[C@@H](O)[C@H](Cc2ccccc2)NC(=O)c2cccc(C(=O)N(C)Cc3nc(C)cs3)c2)c1 [Compound 22, N1-((2S,3R)-3-hydroxy-1-phenyl-4-((5-(prop-1-en-2-yl)pyridin-3-yl)methylamino)butan-2-yl)-N3-methyl-N3-((4-methylthiazol-2-yl)methyl)isophthalamide] | < 300 |  | < 1000 |
| Cc1csc(CN(C)C(=O)c2cccc(C(=O)N[C@@H](Cc3ccccc3)[C@H](O)CNCc3cncc(C(F)(F)F)c3)c2)n1 [Compound 23, N1-((2S,3R)-3-hydroxy-1-phenyl-4-((5-(trifluoromethyl)pyridin-3-yl)methylamino)butan-2-yl)-N3-methyl-N3-((4-methylthiazol-2-yl)methyl)isophthalamide] | < 300 |  | < 1000 |
| COc1cccc(CNC[C@@H](O)[C@H](Cc2ccccc2)NC(=O)c2cc(OC)cc(C(=O)N(Cc3nc(C)cs3)C(C)C)c2)c1 [Compound 25, N1-((2S,3R)-3-hydroxy-4-(3-methoxybenzylamino)-1-phenylbutan-2-yl)-N3-isopropyl-5-methoxy-N3-((4-methylthiazol-2-yl)methyl)isophthalamide] | < 300 |  | < 1000 |
| Cc1csc(CN(C)C(=O)c2cccc(C(=O)N[C@@H](Cc3ccccc3)[C@H](O)CNCc3ccncc3)c2)n1 [Compound 26, N1-((2S,3R)-3-hydroxy-1-phenyl-4-(pyridin-4-ylmethylamino)butan-2-yl)-N3-methyl-N3-((4-methylthiazol-2-yl)methyl)isophthalamide] | > 501 |  | > 5000 |
| Cc1csc(CN(C)C(=O)c2cccc(C(=O)N[C@@H](Cc3ccccc3)[C@H](O)CNCc3cc(C(F)(F)F)cc(C(F)(F)F)c3)c2)n1 [Compound 27, N1-((2S,3R)-4-(3,5-bis(trifluoromethyl)benzylamino)-3-hydroxy-1-phenylbutan-2-yl)-N3-methyl-N3-((4-methylthiazol-2-yl)methyl)isophthalamide] | < 300 |  | < 1000 |
| Cc1csc(CN(C)C(=O)c2cccc(C(=O)N[C@@H](Cc3ccccc3)[C@H](O)CNCc3cc(F)cc(C(F)(F)F)c3)c2)n1 [Compound 28, N1-((2S,3R)-4-(3-fluoro-5-(trifluoromethyl)benzylamino)-3-hydroxy-1-phenylbutan-2-yl)-N3-methyl-N3-((4-methylthiazol-2-yl)methyl)isophthalamide] | < 300 |  | < 1000 |
| Cc1csc(CN(C)C(=O)c2cccc(C(=O)N[C@@H](Cc3ccccc3)[C@H](O)CNCc3cncc(C4CC4)c3)c2)n1 [Compound 30, N1-((2S,3R)-4-((5-cyclopropylpyridin-3-yl)methylamino)-3-hydroxy-1-phenylbutan-2-yl)-N3-methyl-N3-((4-methylthiazol-2-yl)methyl)isophthalamide] | < 300 |  | < 1000 |
| COc1cc(C(=O)N[C@@H](Cc2ccccc2)[C@H](O)CNCc2cccc(C(F)(F)F)c2)cc(C(=O)N(C)Cc2nc(C)cs2)c1 [Compound 31, N1-((2S,3R)-3-hydroxy-1-phenyl-4-(3-(trifluoromethyl)benzylamino)butan-2-yl)-5-methoxy-N3-methyl-N3-((4-methylthiazol-2-yl)methyl)isophthalamide] | < 300 |  | < 1000 |
| COc1cccc(CNC[C@@H](O)[C@H](Cc2ccccc2)NC(=O)c2cc(N)cc(C(=O)N(C)Cc3nc(C)cs3)c2)c1 [Compound 34, 5-amino-N1-((2S,3R)-3-hydroxy-4-(3-methoxybenzylamino)-1-phenylbutan-2-yl)-N3-methyl-N3-((4-methylthiazol-2-yl)methyl)isophthalamide] | > 501 |  | 1000 to 5000 |
| COc1cccc(CNC[C@@H](O)[C@H](Cc2ccccc2)NC(=O)c2cc(C(=O)NCCO)cc(C(=O)N(C)Cc3nc(C)cs3)c2)c1 [Compound 44, N1-((2S,3R)-3-hydroxy-4-(3-methoxybenzylamino)-1-phenylbutan-2-yl)-N3-(2-hydroxyethyl)-N5-methyl-N5-((4-methylthiazol-2-yl)methyl)benzene-1,3,5-tricarboxamide] | < 300 |  | < 1000 |
| Cc1csc(CN(C)C(=O)c2cccc(C(=O)N[C@@H](Cc3ccccc3)[C@H](O)CNCc3cncc(N(C)C)c3)c2)n1 [Compound 47, N1-((2S,3R)-4-((5-(dimethylamino)pyridin-3-yl)methylamino)-3-hydroxy-1-phenylbutan-2-yl)-N3-methyl-N3-((4-methylthiazol-2-yl)methyl)isophthalamide] | < 300 |  | < 1000 |
